Reference: patent US10517913B2, “Composition for prevention, alleviation, or treatment of peripheral neuropathy comprising Lithospermi Radix extract as an effective component” (priority 2015, dated 2019)

Columns and labels:
[1] = system: astrocytes and microglial cells in spinal cord of peripheral neuropathic animals induced by oxaliplatin; test: Immunohistological analysis of glial cells (GFAP, Iba-1) in lumbar spinal cord; assay type: in vivo, C57BL/6 mice; conditions: oxaliplatin 10 mg/kg; lumbar spinal cord dorsal horn
Description: (§1) In the present invention, an animal model having peripheral neuropathy was induced by oxaliplatin. Eight-week old male C57BL/6 mice were purchased from the OrientBio. Following 1 week acclimation period in a cage in an animal test room, the base line (BL) of responses of experimental animals to 3 times of mechanical stimulations applied to the right hind footpad of the animal using von Frey filament hair. Then, the animals were divided into different groups (N=8 animals/group). Peripheral neuropathy was induced by injection of 5 mg/kg oxaliplatin through tail veins of animals (once a week, 2 times for 2 weeks, i.e., 10 mg/kg oxaliplatin in total). Oxaliplatin was purchased from the LC Laboratories.
(§2) The specimens were prepared to histologically determine the protective effect of the Lithospermi Radix extract (WLR) against neuronal damage in peripheral neuropathic animals induced by oxaliplatin. Specifically, the animal was anaesthetized by intraperitoneal injection of sodium pentobarbital (50 mg/kg), and then, blood was removed by perfusion of 0.9% physiological saline through the aorta via left ventricle. Following fixation by perfusion of 4% paraformaldehyde solution buffered with 0.1 M phosphate, the 4th to 6th lumbar spinal cords, dorsal root ganglia, and the hind footpad skins were removed. The tissues were further fixed in the same fixation solution as above. The paraffin-embedded tissues were sectioned at a 4 μm thickness. The slices were mounted on a glass slide, dried, and then, kept at room temperature until use.
The slice of spinal cord with 4 μm thickness was subjected to immunofluorescence staining using antibodies against GFAP and Iba-1 which are astrocyte and microglial cell markers, respectively. After removal of paraffin and hydration, the slice was immersed in citrate buffer solution (Vector Lab., USA) for 10 minutes in a microwave to recover antigenicity and increase reactivity. […]
The activity of the glial cells was expressed by the ratio (%) of the area of stained cells relative to the viewing area under a fluorescence microscope. The fluorescence microscopic images were analyzed compared to the control treatment using a software (Cellsense, Olympus).
Specifically, peripheral neuropathy was induced in male C57BL/6 mice by oxaliplatin (10 mg/kg) according to [Materials and Methods 4]. […] Using the obtained specimen, activation of astrocytes and microglial cells in dorsal horn areas of the lumbar spinal cord of the animals was measured by detecting GFAP and Iba-1 marker proteins, respectively, according to [Materials and Methods 6-2]. Distribution of intraepidermal nerve fiber (IENF) in the hind footpad skin was measured by detecting PGP9.5 marker protein according to [Materials and Methods 6-3].

[2] = system: dorsal root ganglion (DRG) neurons of peripheral neuropathic animals induced by oxaliplatin; test: Morphological cell analysis of dorsal root ganglion neurons; assay type: in vivo, C57BL/6 mice; conditions: oxaliplatin 10 mg/kg
Description: as §1, §2
Dorsal root ganglions were cut out, sectioned into slices with 4 μm thickness and then, subjected to Azan-Mallory trichrome staining. The nucleoli in the stained slice were examined under an optical microscope. Among the neurons having discernible nucleoli, the number of neurons having eccentric nucleoli or multinucleolated nucleus was expressed as a percentage of the total neurons in a viewing area.
Specifically, peripheral neuropathy was induced in male C57BL/6 mice by oxaliplatin (10 mg/kg) according to [Materials and Methods 4]. After that, the mice were orally administered 6 times per week with 250 mg/kg of a Lithospermi Radix extract (WLR) prepared in [Materials and Methods 1] or 0.5% carboxymethyl cellulose (CMC) as a negative control. In addition, 100 mg/kg amifostine was intraperitoneally administered 2 times per week as a positive control. After drug administration for 2 weeks, dorsal root ganglion (DRG) was cut out according to [Materials and Methods 6-1]. Using the obtained specimen, morphological change of nucleus and nucleoli in the dorsal root ganglion (DRG) neurons was observed according to [Materials and Methods 6-4].

[3] = system: human colon cancer cells (HCT116); test: Drug-herb interaction with oxaliplatin cytotoxicity (Ez-Cytox), HCT116; assay type: cell-based; conditions: oxaliplatin 0 to 100 μg/ml alone (No treat), 72 hours
Procedure: A549 and HCT116 cells were purchased from the ATCC (USA). They were cultured in a 100 mm cell culture dish in an incubator at 37° C., 5% CO2, using an RPMI1640 basal medium supplemented with 10% heat inactivated FBS, 100 unit/ml penicillin, and 100 μg/ml streptomycin, and then used for in vitro tests. The basal medium, serum, and other additives were purchased from the Thermo Fisher Scientific.
Specifically, human lung cancer cells (A549) and human colon cancer cells (HCT116) were cultured according to [Materials and Methods 3-3]. The cells were plated in a 96-well culture dish at 5,000 cells per well. After 24 hours, the cells were simultaneously treated with serially diluted oxaliplatin (0 to 100 μg/ml) and the Lithospermi Radix extract (0(PBS), 10, 30, 100 μg/ml) prepared according to [Materials and Methods 1]. The cell only treated with oxaliplatin was served as a negative control. After 72 hours, the cell viability (%) was measured using Ez-Cytox assay kit. The rate of cell death (% death) caused by oxaliplatin was expressed by (100−cell viability (%)).

O=C1[O][Pt]2([NH][C@@H]3CCCC[C@H]3[NH]2)[O]C1=O [oxaliplatin]
number of activated astrocytes (GFAP positive cells) [1]: increased
number of activated microglial cells (Iba-1 positive cells) [1]: increased
frequency of DRG neurons having eccentric nucleoli [2]: increased
frequency of DRG neurons having multinucleolated nucleus [2]: increased
growth of cancer cells [3]: inhibited
